Measurements: patent publication US20220363668A1, “ENZYME INHIBITORS” (KALVISTA PHARMACEUTICALS LIMITED, priority 2019, published 2022)

Assays:
Human Factor XIIa = biological target: T1, Human Factor XIIa (Homo sapiens, UniProt P00748); assay: Determination of the % Inhibition for FXIIa (IC50, fluorogenic substrate H-DPro-Phe-Arg-AFC); assay type: biochemical; conditions: Human Factor XIIa (Enzyme Research Laboratories), 25° C.
T1 construct: purchased Enzyme Research Laboratories
T1 sequence (P00748 373-615 limits assumed): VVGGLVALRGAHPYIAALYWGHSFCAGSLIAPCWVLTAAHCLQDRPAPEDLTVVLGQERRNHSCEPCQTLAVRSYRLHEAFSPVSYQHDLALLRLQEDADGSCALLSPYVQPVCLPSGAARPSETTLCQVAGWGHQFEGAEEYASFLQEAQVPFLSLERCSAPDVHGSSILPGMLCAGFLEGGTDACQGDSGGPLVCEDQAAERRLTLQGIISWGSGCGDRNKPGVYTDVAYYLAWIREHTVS
Procedure: Determination of the % Inhibition for FXIIa
Factor XIIa inhibitory activity in vitro was determined using standard published methods (see e.g. Shori et al., Biochem. Pharmacol., 1992,43, 1209; Baeriswyl et al., ACS Chem. Biol., 2015, 10 (8) 1861; Bouckaert et al., European Journal of Medicinal Chemistry 110 (2016) 181). Human Factor XIIa (Enzyme Research Laboratories) was incubated at 25° C. with the fluorogenic substrate H-DPro-Phe-Arg-AFC and various concentrations of the test compound. Residual enzyme activity (initial rate of reaction) was determined by measuring the change in […] at 410 nm and the IC50 value for the test compound was determined.

Human FXIa = biological target: T2, Human FXIa (Homo sapiens, UniProt P03951); assay: Determination of the % Inhibition for FXIa (IC50, fluorogenic substrate Z-Gly-Pro-Arg-AFC); assay type: biochemical; conditions: Selectivity, Human FXIa (Enzyme Research Laboratories), 25° C.
T2 construct: purchased Enzyme Research Laboratories
Procedure: Determination of the % Inhibition for FXIa
FXIa inhibitory activity in vitro was determined using standard published methods (see e.g. Johansen et al., Int. J. Tiss. Reac. 1986, 8, 185; Shori et al., Biochem. Pharmacol., 1992, 43, 1209; Stürzebecher et al., Biol. Chem. Hoppe-Seyler, 1992, 373, 1025). Human FXIa (Enzyme Research Laboratories) was incubated at 25° C. with the fluorogenic substrate Z-Gly-Pro-Arg-AFC and various concentrations of the test compound. Residual enzyme activity (initial rate of reaction) was determined by measuring the change in fluorescence at 410 nm and the IC50 value for the test compound was determined.

T2 sequence (P03951 388-625 limits assumed): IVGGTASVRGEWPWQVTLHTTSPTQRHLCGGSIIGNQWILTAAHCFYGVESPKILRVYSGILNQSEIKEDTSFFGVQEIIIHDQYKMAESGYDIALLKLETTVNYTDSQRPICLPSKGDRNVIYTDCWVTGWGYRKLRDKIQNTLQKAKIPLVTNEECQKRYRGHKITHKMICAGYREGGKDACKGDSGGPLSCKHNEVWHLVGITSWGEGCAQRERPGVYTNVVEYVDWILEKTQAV
T2 sequence (P03951 19-387 partner limits assumed): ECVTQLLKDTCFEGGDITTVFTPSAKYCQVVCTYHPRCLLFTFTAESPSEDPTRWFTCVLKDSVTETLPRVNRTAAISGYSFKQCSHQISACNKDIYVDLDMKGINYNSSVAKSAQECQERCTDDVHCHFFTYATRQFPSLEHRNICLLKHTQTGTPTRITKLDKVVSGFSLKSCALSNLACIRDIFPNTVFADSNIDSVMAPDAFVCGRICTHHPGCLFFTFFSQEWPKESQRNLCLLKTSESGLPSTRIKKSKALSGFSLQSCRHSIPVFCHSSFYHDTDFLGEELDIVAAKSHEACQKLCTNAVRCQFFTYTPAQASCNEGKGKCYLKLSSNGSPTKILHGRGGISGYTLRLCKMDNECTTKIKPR

Row | IC50 (Human Factor XIIa) | IC50 (Human FXIa) | Structure (SMILES)
1 | 10 to 40 µM |  | Nc1nccc2cc(CNc3cc(OCCN4CCOCC4)ccn3)ccc12 [Example 18.208]
2 | 10 to 40 µM |  | CN1CCC(NC(=O)c2ccc(NCc3ccc4c(N)nccc4c3)nc2)CC1 [Example 18.16]
3 | 10 to 40 µM |  | CN1CCC(Oc2cccc(NCc3ccc4c(N)nccc4c3)n2)CC1 [Example 18.203]
4 | 1 to 3 µM | 36.4 µM | CN1CCC(Oc2ccc(NCc3ccc4c(N)nccc4c3)nc2)CC1 [Example 18.01, 6-(((5-((1-Methylpiperidin-4-yl)oxy)pyridin-2-yl)amino)methyl)isoquinolin-1-amine]
5 | < 1 µM | 19.9 µM | CN1CCC(Oc2cnc(NCc3ccc4c(N)nccc4c3)cn2)CC1 [Example 18.05]
6 | < 1 µM | > 40 µM | CN1CCC(Oc2ccnc(NCc3ccc4c(N)nccc4c3)c2)CC1 [Example 18.202, 6-(((4-((1-methylpiperidin-4-yl)oxy)pyridin-2-yl)amino)methyl)isoquinolin-1-amine]
7 | < 1 µM |  | CN1CCC(COc2ccc(NCc3ccc4c(N)nccc4c3)cc2)CC1 [Example 18.18, 6-(((4-((1-Methylpiperidin-4-yl)methoxy)phenyl)amino)methyl)isoquinolin-1-amine]
8 | 10 to 40 µM |  | CN1CCC(Oc2cnc(NCc3ccc4c(N)nccc4c3)nc2)CC1 [Example 18.02, 6-[({5-[(1-Methylpiperidin-4-yl)oxy]pyrimidin-2-yl}amino)methyl]isoquinolin-1-amine]
9 |  | 33.1 µM | CN1CCC(COc2ccc(NCc3ccc4c(N)nccc4c3)cn2)CC1 [Example 18.12]
10 | 1 to 3 µM |  | CN1CCC(Oc2cc(NCc3ccc4c(N)nccc4c3)ncn2)CC1 [Example 18.209]
11 | < 1 µM | 24.8 µM | CN1CCC(COc2cnc(NCc3ccc4c(N)nccc4c3)cn2)CC1 [Example 18.10, 6-(((5-((1-Methylpiperidin-4-yl)methoxy)pyrazin-2-yl)amino)methyl)isoquinolin-1-amine]
12 | 1 to 3 µM |  | CN1CCCC(Oc2ccnc(NCc3ccc4c(N)nccc4c3)c2)C1 (stereo not shown) [Example 18.210]
13 | 3 to 10 µM |  | Nc1nccc2cc(CNc3ccc(COC4CCNCC4)cn3)ccc12 [Example 18.19, 6-(((5-((Piperidin-4-yloxy)methyl)pyridin-2-yl)amino)methyl)isoquinolin-1-amine]
14 | 3 to 10 µM |  | Nc1nccc2cc(CNc3cc(OC4CCNCC4)ccn3)ccc12 [Example 18.213, 6-(((4-(Piperidin-4-yloxy)pyridin-2-yl)amino)methyl)isoquinolin-1-amine]
15 | 1 to 3 µM |  | CN1CCC(OCc2ccnc(NCc3ccc4c(N)nccc4c3)c2)CC1 [Example 18.206, 6-(((4-(((1-Methylpiperidin-4-yl)oxy)methyl)pyridin-2-yl)amino)methyl)isoquinolin-1-amine]
16 | 1 to 3 µM |  | CN1CCCC(COc2ccc(NCc3ccc4c(N)nccc4c3)nc2)C1 (stereo not shown) [Example 18.14]

Row | IC50 (Human Factor XIIa) | IC50 (Human FXIa) | Structure (SMILES)
17 | 1 to 3 µM |  | CN1CCC(Oc2ccc(NCc3ccc4c(N)nccc4c3)nn2)CC1 [Example 18.06]
18 | 10 to 40 µM |  | CN1CCN(C(=O)c2ccnc(NCc3ccc4c(N)nccc4c3)c2)CC1 [Example 18.205]
19 | 1 to 3 µM |  | Nc1nccc2cc(CNc3ccc(OC4CCNCC4)cc3)ccc12 [Example 18.07]
20 | 10 to 40 µM |  | CN1CCC(Oc2cncc(NCc3ccc4c(N)nccc4c3)n2)CC1 [Example 18.207, 6-(((6-((1-Methylpiperidin-4-yl)oxy)pyrazin-2-yl)amino)methyl)isoquinolin-1-amine]
21 | < 1 µM | 17.9 µM | CN1CCC(COc2ccc(NCc3ccc4c(N)nccc4c3)cn2)CC1 [Example 18.11, 6-(((6-((1-Methylpiperidin-4-yl)methoxy)pyridin-3-yl)amino)methyl)isoquinolin-1-amine]
22 | 3 to 10 µM |  | CN1CCC(CNC(=O)c2ccc(NCc3ccc4c(N)nccc4c3)nc2)CC1 [Example 18.13]
23 | < 1 µM | > 40 µM | CN1CCC(OCc2ccc(NCc3ccc4c(N)nccc4c3)nc2)CC1 [Example 18.03, 6-(((5-(((1-Methylpiperidin-4-yl)oxy)methyl)pyridin-2-yl)amino)methyl)isoquinolin-1-amine]
24 | < 1 µM |  | CN1CCC(COc2ccc(NCc3ccc4c(N)nccc4c3)cc2CO)CC1 [Example 18.15, (5-(((1-Aminoisoquinolin-6-yl)methyl)amino)-2-((1-methylpiperidin-4-yl)methoxy)phenyl)methanol]
25 | < 1 µM | > 40 µM | CN1CCC(COc2ccc(NCc3ccc4c(N)nccc4c3)nc2)CC1 [Example 18.04, 6-(((5-((1-Methylpiperidin-4-yl)methoxy)pyridin-2-yl)amino)methyl)isoquinolin-1-amine]
26 | 1 to 3 µM |  | CN1CCC(Oc2cccc(NCc3ccc4c(N)nccc4c3)c2)CC1 [Example 18.211]
27 | < 1 µM |  | CN1CCC(COc2ccc(NCc3ccc4c(N)nccc4c3)cc2CCO)CC1 [Example 18.17]
28 | 1 to 3 µM |  | CN1CCC(Oc2cncc(NCc3ccc4c(N)nccc4c3)c2)CC1 [Example 18.212]
29 | 3 to 10 µM |  | CN1CCC(CNC(=O)c2cccc(NCc3ccc4c(N)nccc4c3)n2)CC1 [Example 18.201, 6-(((1-Aminoisoquinolin-6-yl)methyl)amino)-N-((1-methylpiperidin-4-yl)methyl)picolinamide]
30 | < 1 µM | > 40 µM | CN1CCC(Oc2ccc(NCc3ccc4c(N)nccc4c3)cc2)CC1 [Example 18.08, 6-(((4-((1-Methylpiperidin-4-yl)oxy)phenyl)amino)methyl)isoquinolin-1-amine]
31 | 3 to 10 µM |  | CN1CCC(NC(=O)c2ccnc(NCc3ccc4c(N)nccc4c3)c2)CC1 [Example 18.204, 2-(((1-Aminoisoquinolin-6-yl)methyl)amino)-N-(1-methylpiperidin-4-yl)isonicotinamide]
32 | 10 to 40 µM |  | Nc1nccc2cc(CNc3ccc(OCCN4CCOCC4)cn3)ccc12 [Example 18.09, 6-(((5-(2-Morpholinoethoxy)pyridin-2-yl)amino)methyl)isoquinolin-1-amine]
